Data from patent US10765638B2, “Particle formulation with polycation complex” (Yale University, priority 2017, dated 2020).

What was measured:
HCC827-GR cells = assay: Confocal microscopy of EGFR and phosphorylated MET localization; type: cell-based; conditions: detected in control samples
Protocol: For immunofluorescence, HCC827-GR cell lines were grown on glass coverslips to 80% confluence. Cell cultures were washed with PBS and fixed with 4% (w/v) formaldehyde in PBS for 30 min at 37° C. After washing with PBS, cells were permeabilized with 0.1% v/v Triton X-100 in PBS for 10 min, rinsed three times in PBS and treated with 5% w/v bovine serum albumin for 1 h. Cells were then incubated overnight at 4° C. with mouse anti-EGFR pAb (sc-03; Santa Cruz Biotechnology; 1:800) and rabbit anti-MET mAb (Cell Signaling; 1:1,000) primary antibodies and for 1 h at room temperature with either Alexa Fluor 543-conjugated goat anti-rabbit IgG or Alexa Fluor 488-conjugated goat anti-mouse IgG (ThermoFisher Scientific; 1:1,000) secondary antibodies. All antibodies were diluted in PBS containing 5% w/v bovine serum albumin. Nuclei were stained using ToPro3 (Invitrogen). Confocal cellular images were captured with an inverted Zeiss LSM 510 Pascal laser confocal microscope (Carl Zeiss, Jenna, Germany), using a 63/1.4 Plan-Apochromat objective.

PC9-ERLucT cells = assay: ER-LucT glycosylation reporter luciferase assay in vitro; type: cell-based; conditions: after 24 h, equivalent concentrations of NGI-1 dissolved in DMSO or via NP
Text: To test the hypothesis that NGI-1 could enhance TKI therapy in EGFR mutant and TKI resistant NSCLC, a NGI-1 nanoparticle (NGI-NP) formulation was developed by nanoprecipitation of a NGI-1 PEI complex. All nanoparticle preparations were confirmed by DLS and the average particle size was 120±10 nm. To assess the activity of the NGI-1 NPs a PC9 cell line with stable expression of the ER-LucT glycosylation reporter (Contessa at al., Clin Cancer Res., 16(12):3205-14 (2010)), a luciferase engineered to be expressed in the endoplasmic reticulum with N-linked glycosylation sites, was established. Under normal cell conditions glycosylation of the luciferase blocks activity and luminescence. However, under conditions of decreased glycosylation luciferase activity is restored with a measurable increase in luciferase activity. Equivalent concentrations of NGI-1, either dissolved in DMSO or via NP, activated luminescence˜6 fold after 24 h in these PC9-ERLucT cells in vitro (FIG. 13A).

AKT = assay: Radiation-induced AKT activation; type: cell-based
IST-SL2 = assay: Lung cancer cell line viability screen; type: cell-based; conditions: IST-SL2, SCLC; 96 hours; read-out: NGI-1 (IC50)
Protocol: NGI-1 activity was screened in 94 lung cancer cell lines at the Center for Molecular Therapeutics at the Massachusetts General Hospital Center for Cancer Research with previously described methods (Garnett et al., Nature, 483(7391):570-5 (2012)). Briefly, cells were treated in 384-well microplates using 9 serial NGI-1 dilutions, returned to an incubator for 96 hours, then stained with 55 μg/ml resazurin (Sigma) prepared in Glutathione-free media for 4 hours. Fluorescent signal intensity was quantified with a plate reader at excitation and emission wavelengths of 535/595 nm to determine viability. Viability ratio across the 9 doses were fitted to determine the half maximal inhibitory concentration (IC50).

[1] = system: non-transformed cell lines, primary human dermal fibroblasts, and neural progenitor cells; conditions: Lopez-Sambrooks 2016, Hafirassou 2017, Puschnik 2017; cited from earlier work
SKMG3-CD8-EGFR cells = assay: Radiation clonogenic survival assay; type: cell-based, human; conditions: 10 μM NGI-1
Protocol: Radiation (XRT) doses of either 0, 2, 4, or 6 Gy were delivered with a Precision X-ray 320-kV orthovoltage unit at a dose rate of 2 Gy/45 seconds (PXI X-Ray Systems). Twenty-four hours following XRT cells were washed, trypsinized, and re-plated in triplicate wells to determine clonogenic survival. […] Growth rates were determined by CellTiter 96 Non-Radioactive Cell Proliferation Assay (Promega; Madison, Wis., USA) according to the manufacturer's directions. For each experiment one thousand cells were seeded in triplicate wells in 96-wells plates. The following day, cell cultures were treated with NGI-1 (1 μM), Temozolomide (TMZ, 10 μM), Etoposide (VP-16, 0.1 μM) or combinations for 5 days. Absorbance at 540 nm was measured using the spectrophotometric reading (BioTek Synergy 2; Winooski, Vt. USA).
The CD8 cDNA was a gift from Paula Kavathas (Yale University). The CD8-EGFR was constructed according to a strategy that generated a constitutively active IGF-1R (24). The extracellular domain of CD8 was PCR amplified with a 5′ XbaI and 3′ SalI restriction site and cloned in-frame with the intracellular kinase domain of EGFR using the pDCB5-EGFR plasmid. SKMG3-CD8-EGFR cells were generated by Lipofectamine (Life Technologies) transfection of the plasmid followed by selection with 500 μg/ml G418. Expression of CD8-EGFR was validated by western blot analysis of the wild type and CD8-EGFR.

## Cc1cnc(NC(=O)c2cc(S(=O)(=O)N(C)C)ccc2N2CCCC2)s1 [NGI-1, 5-(dimethylsulfamoyl)-N-(5-methyl-1,3-thiazol-2-yl)-2-(pyrrolidin-1-yl)benzamide]
HCC827-GR cells
  EGFR detected near the cell surface: not in NGI-1 treated samples
PC9-ERLucT cells
  activation of luminescence (luciferase activity): ~6 fold
AKT; CD8-EGFR expressing SKMG3 cells
  radiation-induced activation of AKT: not in the CD8-EGFR expressing SKMG3 cells
AKT; T98G cells
  AKT activation: does not block AKT activation
AKT; parental SKMG3 cells
  radiation-induced activation of AKT: blocks
IST-SL2
  IC50: 2630 nM
[1]
  toxicity: no significant toxicity
SKMG3-CD8-EGFR cells
  radiosensitization by NGI-1 (radiation clonogenic survival): prevented radiosensitization
